Measurements from PMC12106329, “Chronic alcohol intake disrupts cytochrome P450 enzyme activity in alcoholic fatty liver disease: insights into metabolic alterations and therapeutic targets” (Frontiers in Chemistry, 2025).
Values joined by “and” are separate entries in the source; they are usually repeats but may differ in a detail not shown here. Identical values can stand only once. Like-named read-outs stand apart in the source and are kept apart here.

Assays:
ROS = settings: AM group, oral ethanol 12 weeks; vs NC and SC groups
Protocol: Reactive oxygen species (ROS) levels were detected using the fluorescent dye 2′,7′-dichlorodihydrofluorescein diacetate (DCF) (HY-D0940, Abcam, United Kingdom). […] Endothelial cells (2 × 10^4 cells) were seeded on coverslips in six-well plates and cultured overnight. The cells were treated with H2O2 (200 μM) the next day for 24 h. After treatment, the coverslips were washed with ice-cold Hank’s Balanced Salt Solution (HBSS) (H8264, Sigma Aldrich, Shanghai, China) and incubated with 100 μM DCFDA at 37°C for 30 min. After washing, the coverslips were mounted onto slides and imaged using a multiphoton confocal microscope (A1R, Nikon, United States) with a ×100 objective. Images were analyzed using Nikon Imaging Software NIS-Element.

CYP1A2 [1] = settings: AM group, oral ethanol 12 weeks
Protocol: (§1) Sixty healthy male Sprague-Dawley rats (SD-2024-RAT-045, Beijing Vital River Laboratory Animal Technology Co., Ltd., Beijing, China) weighing 200–250 g were selected. The animals were housed under a 12-h light/dark cycle at a constant laboratory temperature of 22°C ± 2°C and relative humidity of 50% ± 10%, with access to ample food and water. Sixty rats were randomly assigned to four groups (fifteen rats per group): the normal control group (NC group), the sucrose solution group (SC group), the ethanol intake group (AM group), and the ethanol intake group with simultaneous overexpression of CYP2C11 and CYP2B6 (AM + oe-CYP2C11&CYP2B6 group). The NC group received an equal volume of normal saline daily via oral gavage. The SC group was given an 18% sucrose solution (w/v) and an equal volume of normal saline instead of ethanol. The AM group started with a 5% ethanol concentration, increasing by 5% weekly to 40% while maintaining a constant 18% sucrose concentration (v/v). The plasmid vector for gene overexpression, pCMV6-AC-GFP (LM-2069, LMAI Bio, Shanghai, China), was used to construct CYP2C11 and CYP2B6 plasmids, which were developed by Sangon Biotech (Shanghai, China). After constructing the AM rat model, overexpression plasmids were transfected into lentiviruses via tail vein injection ([Liu et al., 2020]). The lentivirus injections (5 × 10^7 IU/rat) were administered twice, with a minimum interval of 2 days between injections, starting on day 7 after the initiation of sucrose treatment ([Ma et al., 2020]).
(§2) The daily ethanol and sucrose feeding volumes were weight-adjusted for the rats, approximately 20 mL per kilogram of body weight, and continued for 12 weeks. Weekly monitoring of rat weight, observation and recording of appetite, general health status including activity level, fur condition, and behavioral changes were documented. Daily feeding amounts were meticulously recorded to accurately adjust ethanol and sucrose solution volumes. After 12 weeks, the rats were euthanized by cervical dislocation following unconsciousness induced by carbon dioxide (CO₂) inhalation. Liver tissues were dissected and stored at −80°C for subsequent histological and molecular biology analyses. Blood samples were collected, and serum was separated by centrifugation (3,000 rpm, 4°C, 15 min) and stored at −80°C for future use.
(§3) Liver samples were lysed using RIPA lysis buffer (P0013B, Beyotime, China). The total protein concentration was evaluated using the BCA protein assay kit (AR0146, Doctor’s Scientific Inc., China). SDS-PAGE was employed to separate total proteins, followed by protein transfer onto pre-wetted PVDF membranes with methanol (IPVH00010, Millipore Corp, United States). Non-specific protein blocking was carried out at room temperature for 3 h using TBST solution (BL315B, Boist, China) containing 5% milk. The target proteins were probed with primary antibodies overnight on […], followed by three washes with TBST/Tween 20 (0.075%) for 15 min each and subsequent incubation with labeled secondary antibodies for 1 h before washing. Protein visualization was performed using the Millipore Immobilon Western Chemiluminescent HRP substrate. The primary antibodies used in the experiments were polyclonal rabbit anti-human CYP450CYP1A2, 2B6, 2C11, 2C19, 2E1, 2D6, 3A1 (bs-20720R, Bioss, China) at a 1:300 dilution. The secondary antibodies, goat anti-mouse or anti-rabbit horseradish peroxidase conjugates, were diluted at 1:10,000 in TBST containing 5% milk. β-actin served as the loading control. The experiments were repeated three times.

CYP2D6 [2] = settings: AM group, oral ethanol 12 weeks
Protocol: as §1, §2, §3

CYP2C19 = settings: AM group, oral ethanol 12 weeks
Protocol: as §1, §2, §3

CYP2E1 [3] = settings: AM group, oral ethanol 12 weeks
Protocol: as §1, §2, §3

CYP2C11 [4] = settings: AM group, oral ethanol 12 weeks
Protocol: as §1, §2, §3

P-gp = settings: AM group, oral ethanol 12 weeks
Protocol: as §1, §2, §3

ALDH2 = settings: AM group, oral ethanol 12 weeks
Protocol: as §1, §2, §3

CYP2B6 [5] = settings: AM group, oral ethanol 12 weeks
Protocol: as §1, §2, §3

CYP3A1 [6] = settings: AM group, oral ethanol 12 weeks; compared to NC and SC groups
Protocol: as §1, §2, §3

CYP1A2 [7] = settings: AM group, oral ethanol 12 weeks; compared to NC and SC groups
Protocol: as §1, §2
(§4) Rat liver microsomes were isolated using differential centrifugation. Each sample was mixed with 50 mM Tris-HCl buffer, homogenized, and then centrifuged at 10,000 × g for 30 min. The supernatant was centrifuged at 100,000 × g for 1 h using a high-speed centrifuge (Himac CP100WX, Hitachi, Japan).
(§5) The activities of CYP1A2, CYP2B6, CYP2C19, CYP2C11, CYP2E1, CYP2D6, and CYP3A1 were quantitatively determined using specific labeled substrates and an NADPH generation system containing 100 mM potassium phosphate buffer, 1 mM NADP (N1630, Sigma, United States), 10 mmol/L G-6-P (G7877, Sigma, United States), 0.1 U/mL G-6-PDH (G8529, Sigma, United States), and 5 mM MgCl2. The NADPH generation system was added to microsomes (total protein concentration of 1 mg/mL) with a total volume of 190 μL. Each reaction system was supplemented with 10 μL of substrate.

CYP2D6 [8] = settings: AM group, oral ethanol 12 weeks; compared to NC and SC groups
Protocol: as §1, §2, §4, §5

CYP2E1 [9] = settings: AM group, oral ethanol 12 weeks; compared to NC and SC groups
Protocol: as §1, §2, §4, §5

CYP2C11 [10] = settings: AM group, oral ethanol 12 weeks; remark: listed apart in the source
Protocol: as §1, §2, §4, §5

CYP2B6 [11] = settings: AM group, oral ethanol 12 weeks; remark: listed apart in the source
Protocol: as §1, §2, §4, §5

CYP3A1 [12] = settings: AM group, oral ethanol 12 weeks; compared to NC and SC groups; remark: listed apart in the source
Protocol: as §1, §2, §4, §5

[13] = AM group, oral ethanol 12 weeks; vs NC and SC groups
Protocol: as §1, §2
Serum-related indicators were measured using commercial assay kits (BioSino Biotechnology and Science Inc., Beijing, China) following the manufacturer’s protocols. Specifically, serum samples, substrates, and buffer solutions were prepared according to the kit instructions. The reaction mixture was incubated at 37°C for 20 min, and absorbance was measured at 340 nm to record changes. Concentrations were calculated based on a standard curve ([Li et al., 2018]).

[14] = for AUC0-∞ / Cmax / T1/2 / T1/2 el / Tmax / MRT / AUC0-L∞: oral, serum, final dosing after 12 weeks, mean; for AUC0-L∞: time zero to last measurable concentration
Protocol: Rats were administered orally with the same doses of normal saline and ethanol in the NC, SC, and AM groups, following the same method. After 12 weeks, blood samples were collected from the rats at specified time points (0.5, 1, 2, 4, 6, 8, and 12 h post-dosing) during the final dosing. The blood samples were centrifuged to separate serum and then stored at −80°C for further use.
Utilizing liquid chromatography-mass spectrometry (LC-MS) technology, the concentrations of ethanol and its metabolites in serum samples were analyzed. Analyze the pharmacokinetic parameters of the drug, such as the maximum plasma concentration (Cmax), the mean residence time (MRT) of ethanol in the body, and the bioavailability of ethanol. Data processing was conducted using specialized software XCMS, involving peak identification, integration, and normalization. Multivariate statistical analyses were performed on metabolite data to reveal metabolic differences between groups, such as principal component analysis (PCA) and orthogonal partial least squares discriminant analysis (OPLS-DA). Metabolites were annotated and compared with known databases (HMDB, METLIN) to confirm their identities. Differences in pharmacokinetic parameters among the NC, SC, and AM groups were compared to evaluate the effects of alcohol exposure and CYP450 enzymes, aiming to identify metabolite variances.

CYP3A1 mRNA = settings: AM group, oral ethanol 12 weeks; compared to NC and SC groups
Protocol: as §1, §2
(§6) Total RNA was extracted from rat liver tissue using TRIzol reagent (15596026, Invitrogen, United States). cDNA was synthesized using the cDNA synthesis kit (RR036A, Takara, Japan). Specific gene expression was detected by combining the PCR master mix (206143, Qiagen, United States) with the Pikoreal 96 real-time PCR system (QPCR-96X, Thermo Scientific, United States). Quantitative PCR analysis was performed for CYP450 enzyme-related genes with the endogenous gene β-actin as a reference, and the relative mRNA expression levels were quantified by calculating the 2^−ΔΔCt values. All experiments were repeated three times.

CYP2E1 mRNA = settings: AM group, oral ethanol 12 weeks; compared to NC and SC groups
Protocol: as §1, §2, §6

CYP1A2 mRNA = settings: AM group, oral ethanol 12 weeks; compared to NC and SC groups
Protocol: as §1, §2, §6

CYP2D6 mRNA = settings: AM group, oral ethanol 12 weeks; compared to NC and SC groups
Protocol: as §1, §2, §6

CYP2C11 mRNA = settings: AM group, oral ethanol 12 weeks; compared to NC and SC groups
Protocol: as §1, §2, §6

CYP2B6 mRNA = settings: AM group, oral ethanol 12 weeks; compared to NC and SC groups
Protocol: as §1, §2, §6

rat liver = settings: AM group: oral ethanol 5% rising 5% weekly to 40% in 18% sucrose, about 20 mL/kg daily, 12 weeks; vs NC and SC groups
Protocol: as §1, with “The plasmid vector for gene overexpression, pCMV6-AC-GFP (LM-2069, LMAI Bio, Shanghai, China), was used to construct CYP2C11 and CYP2B6 plasmids, which were developed by Sangon Biotech (Shanghai, China). After constructing the AM rat model, overexpression plasmids were transfected into lentiviruses via tail vein injection ([Liu et al., 2020]). The lentivirus injections (5 × 10^7 IU/rat) were administered twice, with a minimum interval of 2 days between injections, starting on day 7 after the initiation of sucrose treatment ([Ma et al., 2020]).” left out
The daily ethanol and sucrose feeding volumes were weight-adjusted for the rats, approximately 20 mL per kilogram of body weight, and continued for 12 weeks. […] Daily feeding amounts were meticulously recorded to accurately adjust ethanol and sucrose solution volumes. […]

[15] = liver, β-actin loading control, single replicates
[16] = SC group (sucrose solution) rats
[17] = rat serum after long-term alcohol exposure

## CCO [ethanol]
ROS
  intracellular ROS level: significant increase
CYP1A2 [1]; compared to NC and SC groups
  CYP1A2 protein expression, change: higher
CYP1A2 [1]; [15]
  CYPIA2 Relative protein expression: 1.50 and 1.52 and 1.65
CYP2D6 [2]; compared to NC and SC groups
  CYP2D6 protein expression, change: higher
CYP2D6 [2]; [15]
  CYP2D6 Relative protein expression: 3.37 and 3.45 and 2.83
CYP2C19; across all groups
  CYP2C19 protein expression, change: no significant difference
CYP2C19; [15]
  CYP2C19 Relative protein expression: 1.22 and 1.39 and 1.27
CYP2E1 [3]; compared to NC and SC groups
  CYP2E1 protein expression, change: higher
CYP2E1 [3]; [15]
  CYP2E1 Relative protein expression: 1.88 and 2.01 and 1.78
CYP2C11 [4]; compared to NC and SC groups
  CYP2C11 protein level, change: significantly lower
CYP2C11 [4]; [15]
  CYP2C11 Relative protein expression: 0.76 and 0.74 and 0.78
P-gp
  P-gp protein expression, change: significant increase
P-gp; [15]
  P-gp Relative protein expression: 1.61 and 1.33 and 1.52
ALDH2; compared with NC and SC groups
  ALDH2 protein level, change: increased
ALDH2; [15]
  ALDH2 Relative protein expression: 1.34 and 1.48 and 1.49
CYP2B6 [5]; compared to NC and SC groups
  CYP2B6 protein level, change: significantly lower
CYP2B6 [5]; [15]
  CYP2B6 Relative protein expression: 0.28 and 0.3 and 0.29
CYP3A1 [6]
  CYP3A1 protein expression, change: higher
CYP1A2 [7]
  CYP1A2 enzyme activity in liver microsomes: significantly increased
CYP2D6 [8]
  CYP2D6 enzyme activity in liver microsomes: significantly increased
CYP2E1 [9]
  CYP2E1 enzyme activity in liver microsomes: significantly increased
CYP2C11 [10]
  CYP2C11 enzyme activity in liver microsomes: notable decreases
CYP2B6 [11]
  CYP2B6 enzyme activity in liver microsomes: notable decreases
CYP3A1 [12]
  CYP3A1 enzyme activity in liver microsomes: significantly increased
[13]
  MDA level: significantly increased
  SOD level: significantly decreased
  serum ALT level: significantly increased
  serum AST level: significantly increased
  total cholesterol (TC) level: significantly increased
  triglyceride (TG) level: significantly increased
[14]; AM group (alcohol intake) rats
  AUC0-∞: 29.12 µg·h/mL
  Cmax: 2.375 µg/mL
  T1/2: 2.88 h
  T1/2 el: 17.04 h
  Tmax: 4.76 h
  AUC0-L∞: 27.82 µg·h/mL
[14]; AM group (alcohol intake) rats, p < 0.01 vs NC
  MRT: 24.48 h
[14]; NC group (normal control) rats
  AUC0-∞: 22.4 µg·h/mL
  Cmax: 1.9 µg/mL
  MRT: 20.4 h
  T1/2: 2.4 h
  T1/2 el: 14.2 h
  Tmax: 4.75 h
  AUC0-L∞: 21.4 µg·h/mL
[14]; NC, SC and AM groups, p > 0.05
  Tmax, difference among the groups: no significant difference
[14]; [16]
  AUC0-∞: 21.3 µg·h/mL
  Cmax: 1.89 µg/mL
  MRT: 19.8 h
  T1/2: 2.35 h
  T1/2 el: 13.5 h
  Tmax: 4.68 h
[14]; [17]
  AUC0-L∞, AM group vs other groups: significantly increased
  AUC0-∞, AM group vs other groups: significantly increased
[14]; rat, after long-term alcohol exposure
  clearance, AM group vs other groups: lower
CYP3A1 mRNA
  CYP3A1 mRNA level in liver: significantly higher
CYP2E1 mRNA
  CYP2E1 mRNA level in liver: significantly higher
CYP1A2 mRNA
  CYP1A2 mRNA level in liver: significantly higher
CYP2D6 mRNA
  CYP2D6 mRNA level in liver: significantly higher
CYP2C11 mRNA
  CYP2C11 mRNA level in liver: significantly lower
CYP2B6 mRNA
  CYP2B6 mRNA level in liver: significantly lower
Rat liver
  liver histology (H&E): macrovesicular steatosis
